Source: patent US7226924B2, “Substituted 3,4-dihydro-pyrimido[1,2a]pyrimidines and 3,4-dihydro-pyrazino[1,2a]pyrimidines, and methods for their preparation and use” (priority 2000, dated 2007)

Columns and labels:
μ-opiate receptor = μ-opiate receptor (Homo sapiens, UniProt P35372); assay: μ-opiate receptor binding; settings: read-out: Ki Value of the μ-opiate Receptor Bond
Excerpt: (§1) Compounds according to the invention were investigated with respect to their pharmacological properties using methods described by J. P. Devlin in “High throughput screening—the discovery of bioactive substances,” Marcel Dekker, New York, 1997, pages 275 to 453.

NMDA/MK801-binding site = NMDA/MK801-binding site inhibition; design: dose or concentration left out as unconfirmed
Excerpt: as §1

Sequence of μ-opiate receptor (P35372 whole entry, species assumed): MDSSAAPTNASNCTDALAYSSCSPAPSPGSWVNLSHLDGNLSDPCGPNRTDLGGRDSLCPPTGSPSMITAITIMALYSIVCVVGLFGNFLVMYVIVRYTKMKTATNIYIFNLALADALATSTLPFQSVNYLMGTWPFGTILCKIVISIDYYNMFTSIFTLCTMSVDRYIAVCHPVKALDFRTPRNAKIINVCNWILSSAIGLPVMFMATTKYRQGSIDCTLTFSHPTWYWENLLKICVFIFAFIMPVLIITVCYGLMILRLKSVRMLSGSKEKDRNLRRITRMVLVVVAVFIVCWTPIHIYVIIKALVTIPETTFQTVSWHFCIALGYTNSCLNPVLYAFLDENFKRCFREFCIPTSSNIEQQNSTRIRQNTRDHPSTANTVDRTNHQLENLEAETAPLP

SMILES | Ki (μ-opiate receptor) | % inhibition of NMDA/MK801-binding site (NMDA/MK801-binding site)
BrC1=CN2C(=NC(c3ccccn3)CC2Sc2ccccc2)N=C1 (centres unmarked) [Example 53, 7-bromo-4-phenylsulphanyl-2-pyridin-2-yl-3,4--dihydro-2H-pyrimido[1,2a]pyrimidine] | 2.5 µM | 44%
NC(=O)C1=NC(Cl)=C(N)N2C1=NC(c1ccccn1)CC2Sc1ccccc1 (centres unmarked) [Example 51, 6-Amino-7-chlor-4-phenylsulphanyl-2-pyridin-2--yl-3,4-dihydro-2H-pyrazino[1,2a]pyrimidin-9--carboxylic acid amide] | 1.4 µM | 40%
N#CC1=NC(c2ccccc2)=CN2C1=NC(c1ccccn1)CC2Sc1ccccc1 (centres unmarked) [Example 52, 7-phenyl-4-phenylsulphanyl-2-pyridin-2-yl-3,4--dihydro-2H-pyrazino[1,2a]pyrimidine-9--carbonitrile] | 1.4 µM | 47%
BrC1=CN2C(=NC(c3ccccn3)C3CCC=CC32)N=C1 (centres unmarked) [Example 62, 3-bromo-9-pyridin-2-yl-7,8,84,9-tetrahydro--4bH-1,44,10-triaza-phenanthrene] |  | 40%
OC1=CC(O)=NC2=NC(c3ccccn3)C3C4C=CC(C4)C3N12 (centres unmarked) [Example 61, 5,8-methano-9-pyridin-2-yl-5,8,84,9-tetrahydro--4bH-1,4a,10-triaza-phenanthrene-2,4-diol] |  | 40%
